Source: patent US20230145835A1, “Modulators of Alpha-4-beta-7 Integrin and MAdCAM” (48HD Biopharma Inc., priority 2021, published 2023)
“And” between values parts separate entries of the source, which are not always exact repeats. Equal entries are not always repeated. Where two headings read alike, the source gives them in different places. Numbered stars: 1 amine (or outer) side, 2 acyl side, 3 side chain; on linkers, the order of the positions; unused ones are H or OH. Bridge positions count the residues as written; N and C are the ends. Square brackets hold non-standard residues; d marks the D form. Peptide text beside a SMILES is read from it. I, II: the chains in the order shown. CO(CH2CH2O)5CH2CH2CO = O=C(CCOCCOCCOCCOCCOCCC(=O)[*:2])[*:1]; X3 = O=C(/C=N/OCCCCCCOc1cc(C[*:2])cc(C[*:3])c1)[*:1]; X1 = O=C(C=NOCCCCCCOc1cc(C[*:2])cc(C[*:3])c1)[*:1]; X7 = O=C(/C=N\OCc1cc(C[*:2])cc(C[*:3])c1)[*:1]; X4 = N=C(N)NCCC[C@@H](CN[*:1])C(=O)[*:2]; Nle = CCCC[C@H](N)C(=O)O

Target: T1, rh-integrin α4β7/LPAM-1 (Homo sapiens, UniProt P13612+P26010)
T1 sequence (P13612 34-977 limits assumed): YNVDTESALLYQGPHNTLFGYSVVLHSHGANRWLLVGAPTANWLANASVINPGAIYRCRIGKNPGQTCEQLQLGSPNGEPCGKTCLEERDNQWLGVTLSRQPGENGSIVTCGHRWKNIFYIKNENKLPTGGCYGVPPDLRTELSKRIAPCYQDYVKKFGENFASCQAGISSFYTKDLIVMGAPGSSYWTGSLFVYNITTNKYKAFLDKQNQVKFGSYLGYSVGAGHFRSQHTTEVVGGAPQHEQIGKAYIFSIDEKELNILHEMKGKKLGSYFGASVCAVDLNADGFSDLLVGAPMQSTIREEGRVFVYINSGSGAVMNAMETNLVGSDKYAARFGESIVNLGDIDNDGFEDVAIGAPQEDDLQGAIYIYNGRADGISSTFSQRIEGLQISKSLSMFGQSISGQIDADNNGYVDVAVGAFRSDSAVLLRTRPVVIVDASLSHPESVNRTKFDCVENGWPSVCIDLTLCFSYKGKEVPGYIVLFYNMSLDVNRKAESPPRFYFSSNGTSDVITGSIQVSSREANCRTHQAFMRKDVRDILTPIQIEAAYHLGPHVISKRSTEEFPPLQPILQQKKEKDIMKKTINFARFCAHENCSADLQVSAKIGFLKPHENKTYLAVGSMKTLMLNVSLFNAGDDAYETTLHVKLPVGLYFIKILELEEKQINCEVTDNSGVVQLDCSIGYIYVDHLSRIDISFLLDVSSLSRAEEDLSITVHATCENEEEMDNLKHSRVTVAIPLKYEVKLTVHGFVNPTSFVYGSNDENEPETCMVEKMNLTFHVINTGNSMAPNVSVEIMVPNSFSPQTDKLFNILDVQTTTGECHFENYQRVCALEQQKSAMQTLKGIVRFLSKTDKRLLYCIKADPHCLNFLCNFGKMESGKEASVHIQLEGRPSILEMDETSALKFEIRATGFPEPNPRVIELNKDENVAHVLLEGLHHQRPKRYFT
T1 sequence (P26010 20-723 limits assumed): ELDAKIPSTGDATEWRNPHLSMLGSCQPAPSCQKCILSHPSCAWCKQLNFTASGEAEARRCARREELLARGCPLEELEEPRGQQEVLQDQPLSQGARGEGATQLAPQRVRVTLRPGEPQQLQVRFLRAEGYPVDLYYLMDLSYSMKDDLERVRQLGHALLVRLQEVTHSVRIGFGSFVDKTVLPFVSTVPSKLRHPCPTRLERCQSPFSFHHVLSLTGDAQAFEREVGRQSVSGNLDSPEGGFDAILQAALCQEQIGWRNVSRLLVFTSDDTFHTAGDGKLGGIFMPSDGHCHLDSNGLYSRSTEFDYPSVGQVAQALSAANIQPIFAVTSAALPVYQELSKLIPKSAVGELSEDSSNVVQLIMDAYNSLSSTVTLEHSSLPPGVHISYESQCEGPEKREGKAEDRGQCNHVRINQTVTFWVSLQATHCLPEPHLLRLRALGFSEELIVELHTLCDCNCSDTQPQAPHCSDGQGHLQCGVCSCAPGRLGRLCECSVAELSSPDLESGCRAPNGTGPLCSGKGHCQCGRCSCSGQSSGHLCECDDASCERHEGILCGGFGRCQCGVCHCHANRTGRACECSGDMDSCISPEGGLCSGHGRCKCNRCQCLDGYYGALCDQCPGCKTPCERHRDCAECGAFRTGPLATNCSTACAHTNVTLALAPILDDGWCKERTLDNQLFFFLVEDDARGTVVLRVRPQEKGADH
Experiment: α4β7-MadCAM Competition ELISA (Example 4)
Format: binding
Procedure: After washing with wash buffer, 200 μL assay buffer was added to each well and incubated for one hour at 28° C. After another wash with wash buffer, 100 μL of a MAdCAM and peptide mixture in assay buffer was added to each well and incubated for one hour at 28° C., followed by washing with wash buffer.

[1] = competition ELISA, 4 μg/mL α4β7 coated, MAdCAM and peptide mixture, 28° C., read-out: IC50
[2] = Table 3 Representative compounds, inhibition of MAdCAM binding to coated α4β7, read-out: IC50

CC[C@H](C)[C@@H]1NC(=O)[C@H](CC(=O)O)NC(=O)[C@H](CCSC)NC(=O)[C@@H]2CCCN2C(=O)[C@@H](NC(=O)[C@H](CCCNC(=N)N)NC(=O)[C@H](CO)NC(C)=O)CSSC[C@@H](C(=O)N[C@@H](CCCCNC(=O)CCOCCOCCOCCOCCOCCC(=O)NCCCC[C@H](NC(=O)[C@@H]2CSSC[C@H](NC(=O)[C@H](CCCNC(=N)N)NC(=O)[C@H](CO)NC(C)=O)C(=O)N3CCC[C@H]3C(=O)N[C@@H](CCSC)C(=O)N[C@@H](CC(=O)O)C(=O)N[C@@H]([C@@H](C)CC)C(=O)N[C@@H](C)C(=O)NCC(=O)N[C@@H](CCC(=O)O)C(=O)N2)C(N)=O)C(N)=O)NC(=O)[C@H](CCC(=O)O)NC(=O)CNC(=O)[C@H](C)NC1=O [SEQ ID NO: 109] (I: Ac-SRCPMDIAGECK-NH2 / II: Ac-SRCPMDIAGECK-NH2; disulfide I:3-I:11, II:3-II:11; linker I:12-II:12 via CO(CH2CH2O)5CH2CH2CO)
IC50 [1]: 1730 nM

N=C(N)NCCC[C@H]1CNC(=O)CNC(=O)[C@H](Cc2ccc(O)cc2)NC(=O)[C@H](Cc2c[nH]c3ccccc23)NC(=O)[C@H](Cc2c[nH]cn2)NC(=O)[C@@H]2CSCc3cc(cc(c3)OCCCCCCO/N=C/C(=O)N[C@@H](CCC(N)=O)C(=O)N2)CSC[C@@H](C(N)=O)NC(=O)[C@@H](CO)NC1=O [compound 111, TSL6- SQCHWYGRSC] (QCHWYG[X4][dS]C-NH2; linker N-2-9 via X3)
IC50 [2]: > 500000 nM

CC(C)C[C@@H]1NC(=O)[C@@H]2CCCN2C(=O)[C@@H](NC(=O)[C@H](CCCCN)NC(=O)[C@@H](N)CO)CSSC[C@@H](C(N)=O)NC(=O)[C@H](CO)NC(=O)[C@@H]2CCCN2C(=O)[C@H](C(C)C)NC(=O)[C@H](CC(=O)O)NC1=O [compound 41] (H-SKCPLDVPSC-NH2; disulfide 3-10)
IC50 [2]: 1300 nM

CCCC[C@@H]1NC(=O)[C@@H]2CCCN2C(=O)[C@@H]2CSCc3cc(cc(c3)OCCCCCCC(=O)NCC(=O)N[C@@H](CCCCN)C(=O)N2)CSC[C@@H](C(N)=O)NC(=O)[C@H](CCCCN)NC(=O)[C@H](C(C)C)NC(=O)[C@H](Cc2c[nH]c3ccccc23)NC(=O)[C@H]([C@@H](C)CC)NC(=O)[C@H](CC(=O)O)NC1=O (stereo in doubt) [compound 21, TSLC7- GKCP{Nle} DIWVKC]
IC50 [2]: 450 nM

C[C@@H](O)[C@@H]1NC(=O)[C@H](Cc2ccccc2)NC(=O)[C@H](CCCCN)NC(=O)[C@H](CC(=O)O)NC(=O)[C@H](Cc2cnc[nH]2)NC(=O)[C@@H]2CSCc3cc(cc(c3)OCCCCCCO/N=C/C(=O)N[C@@H](CO)C(=O)N2)CSC[C@@H](C(N)=O)NC(=O)[C@H](CCC(=O)O)NC1=O [compound 60, TSL6- SDCHDKFTEC] (SCHDKFTEC-NH2; linker N-2-9 via X3)
IC50 [2]: 5430 nM

CC(C)C[C@@H]1NC(=O)[C@@H]2CCCN2C(=O)[C@@H](NC(=O)[C@H](CCCCN)NC(=O)[C@@H](N)CO)CSSC[C@@H](C(=O)O)NC(=O)[C@H](CCC(=O)O)NC(=O)[C@H](Cc2ccc(O)cc2)NC(=O)[C@@H]2CCCN2C(=O)[C@H]([C@@H](C)O)NC(=O)[C@H](CC(=O)O)NC1=O [SEQ ID NO: 152] (H-SKCPLDTPYEC-OH; disulfide 3-11; N-terminus and C-terminus assumed)
IC50 [1]: 552 nM

CCCC[C@@H]1NC(=O)[C@@H]2CCCN2C(=O)[C@@H]2CSCc3cc(cc(c3)OCCCCCCON=CC(=O)N[C@@H](CCCNC(=N)N)C(=O)N2)CSC[C@@H](C(=O)O)NC(=O)[C@H](CCC(=O)O)NC(=O)CNC(=O)[C@H](C)NC(=O)[C@H](C(C)C)NC(=O)[C@H](CC(=O)O)NC1=O [SEQ ID NO: 138] (RCP[Nle]DVAGEC-OH; linker N-2-10 via X1)
IC50 [1]: 261 nM

CCCC[C@@H]1NC(=O)[C@H](CO)NC(=O)[C@H](CCCNC(=N)N)NC(=O)[C@@H]2CSCC(=O)N[C@@H](CCCNC(=N)N)C(=O)N[C@@H](CSSC[C@@H](C(=O)N[C@@H](Cc3c[nH]c4ccccc34)C(=O)N[C@@H](CCC(N)=O)C(N)=O)NC(=O)[C@H]([C@@H](C)CC)NC(=O)[C@H](CC(=O)O)NC1=O)C(=O)N[C@@H](CO)C(=O)N[C@@H](CCCC)C(=O)N[C@@H](CC(=O)O)C(=O)N[C@@H]([C@@H](C)CC)C(=O)N2 [SEQ ID NO: 76] ({CH2CO}-RCS[Nle]DICRS[Nle]DICWQ-NH2; disulfide 2-13; thioether N-7)
IC50 [1]: 263000 nM

CC[C@H](C)[C@@H]1NC(=O)[C@H]([C@@H](C)O)NC(=O)[C@H](CC(=O)O)NC(=O)[C@H](CO)NC(=O)[C@H](CCCNC(=N)N)NC(=O)[C@@H]2CSCc3cc(cc(c3)CSC[C@@H](C(N)=O)NC1=O)CO/N=C\C(=O)N[C@@H](C)C(=O)N2 [compound 94, TSL1- SACRSDTLC] (ACRSDTIC-NH2; linker N-2-8 via X7)
IC50 (IC50, Table 3 Representative compounds, inhibition of MAdCAM binding to coated α4β7): 111000 nM

CC(C)C[C@@H]1NC(=O)[C@@H]2CCCN2C(=O)[C@@H]2CSCc3cc(cc(c3)OCCCCCCON=CC(=O)N[C@@H](CCCCN)C(=O)N2)CSC[C@@H](C(=O)O)NC(=O)[C@H](CO)NC(=O)[C@@H]2CCCN2C(=O)[C@H](C)NC(=O)[C@H](CC(=O)O)NC1=O [SEQ ID NO: 57] (KCPLDAPSC-OH; linker N-2-9 via X1)
IC50 [1]: 1740 nM

CC[C@H](C)[C@@H]1NC(=O)[C@H](CC(=O)O)NC(=O)[C@H](CCSC)NC(=O)[C@@H]2CCCN2C(=O)[C@@H]2CSCc3cc(cc(c3)OCCCCCCO/N=C/C(=O)N[C@@H](CCCNC(=N)N)C(=O)N2)CSC[C@@H](C(N)=O)NC(=O)[C@H](CCC(=O)O)NC(=O)[C@H](CCC(N)=O)NC(=O)[C@H](Cc2c[nH]c3ccccc23)NC1=O [compound 16] (RCPMDIWQEC-NH2; linker N-2-10 via X3)
IC50 [2]: 272 nM

CCCC[C@@H]1NC(=O)[C@@H]2CCCN2C(=O)[C@@H]2CSCc3cc(cc(c3)OCCCCCCO/N=C/C(=O)N[C@@H](CCCNC(=N)N)C(=O)N2)CSC[C@@H](C(N)=O)NC(=O)[C@H](CCC(=O)O)NC(=O)[C@H](Cc2ccc(O)cc2)NC(=O)[C@H](Cc2c[nH]c3ccccc23)NC(=O)[C@H](C(C)C)NC(=O)[C@H](CC(=O)O)NC1=O [compound 6] (RCP[Nle]DVWYEC-NH2; linker N-2-10 via X3)
IC50 [2]: 130 nM

CC(C)C[C@@H]1NC(=O)[C@@H]2CCCN2C(=O)[C@@H]2CSCc3cc(cc(c3)OCCCCCCO/N=C/C(=O)N[C@@H](CCCCN)C(=O)N2)CSC[C@@H](C(N)=O)NC(=O)[C@H](CCC(=O)O)NC(=O)[C@H](Cc2ccc(O)cc2)NC(=O)[C@@H]2CCCN2C(=O)[C@H]([C@@H](C)O)NC(=O)[C@H](CC(=O)O)NC1=O [compound 22, TSL6- SKCPLDTPYEC] (KCPLDTPYEC-NH2; linker N-2-10 via X3)
IC50 [2]: 495 nM and 940 nM

CC[C@H](C)[C@@H]1NC(=O)/C=N/OCCCCCCOc2cc3cc(c2)CSC[C@H](NC1=O)C(=O)N[C@@H](Cc1ccc(O)cc1)C(=O)N1CCC[C@H]1C(=O)N[C@@H](CC(=O)O)C(=O)N[C@@H]([C@@H](C)O)C(=O)N[C@@H](Cc1ccc(O)cc1)C(=O)N[C@@H](Cc1cnc[nH]1)C(=O)N[C@H](C(N)=O)CSC3 [compound 91, TSL6- SICYPDTYHC] (ICYPDTYHC-NH2; linker N-2-9 via X3)
IC50 [2]: 93200 nM

CC[C@H](C)[C@@H]1NC(=O)[C@H](CC(=O)O)NC(=O)[C@H](CCSC)NC(=O)[C@@H]2CCCN2C(=O)[C@@H]2CSCc3cc(cc(c3)OCCCCCCO/N=C/C(=O)N[C@@H](C)C(=O)N2)CSC[C@@H](C(N)=O)NC(=O)[C@H]([C@@H](C)O)NC(=O)[C@@H]2CCCN2C1=O [compound 37, TSL6- SACPMDIPTC] (ACPMDIPTC-NH2; linker N-2-9 via X3)
IC50 [2]: 943 nM
